# Reference: US7964629B2, “Inhibitors of isoprenylcysteine carboxyl methyltransferase” (Duke Universtiy, priority 2005, dated 2011)
# Molecular target: T1, recombinant human Icmt (Homo sapiens, UniProt O60725)
# T1 construct: recombinant baculovirus containing the entire open reading frame of the human Icmt cDNA; made in house; host or cells: Sf9 insect cells (baculovirus); membrane fraction used
# Experiment: Icmt assay: [3H]methyl incorporation from [3H]AdoMet into BFC
# Type: biochemical
# Settings: not given
# T1 sequence (O60725 whole entry): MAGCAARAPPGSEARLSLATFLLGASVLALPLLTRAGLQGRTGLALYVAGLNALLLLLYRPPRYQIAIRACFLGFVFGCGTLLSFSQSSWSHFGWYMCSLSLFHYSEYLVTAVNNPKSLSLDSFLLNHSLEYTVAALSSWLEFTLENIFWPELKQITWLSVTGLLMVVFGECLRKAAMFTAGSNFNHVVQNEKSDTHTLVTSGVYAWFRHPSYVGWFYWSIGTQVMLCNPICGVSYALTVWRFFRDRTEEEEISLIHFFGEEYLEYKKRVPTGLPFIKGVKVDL
row,Molecule,IC50 [µM]
1,CCOc1cccc(-c2ccc3c(c2)c(CC=O)cn3Cc2cccc(C(F)(F)F)c2)c1 [9F10/A119038],6

# Same assay, conditions: Table 1, R1 substituent x scaffold matrix; read-out: IC50
row,Molecule,IC50 [µM]
1,CC(C)Cn1cc(CC(N)=O)c2cc(-c3cccc(F)c3)ccc21 [(a1)/drawing 3],13.7 ± 0.3

# Same assay, conditions: Table 2, no pre-incubation; read-out: IC50
row,Molecule,IC50 [µM]
1,COc1ccccc1-c1ccc2c(c1)c(CC=O)cn2CC1CC1 [9F8/A119059],> 30
2,O=CCc1cn(CCCOc2ccccc2)c2ccc(-c3ccc(Oc4ccccc4)cc3)cc12 [9B20/A119055],14
3,CCOc1cccc(-c2ccc3c(c2)c(CC=O)cn3Cc2ccc(C(C)(C)C)cc2)c1 [9B6/A119030],3
4,CC(C)(C)c1ccc(Cn2cc(CC=O)c3cc(-c4cc(C(F)(F)F)cc(C(F)(F)F)c4)ccc32)cc1 [9B4/A119024],4
5,CCCCCCn1cc(CC=O)c2cc(-c3ccc(Oc4ccccc4)cc3)ccc21 [9D20/A110023],20
6,CCCCCCCCn1cc(CC=O)c2cc(-c3ccc(Oc4ccccc4)cc3)ccc21 [9D18/A119047],5
7,CCCCCCn1cc(CC=O)c2cc(-c3ccc(F)c(Cl)c3)ccc21 [9F18/A119017],7
8,O=CCc1cn(Cc2ccccc2)c2ccc(-c3ccc(Oc4ccccc4)cc3)cc12 [9B8/A119007],7
9,O=CCc1cn(Cc2cccc(C(F)(F)F)c2)c2ccc(-c3cc(C(F)(F)F)cc(C(F)(F)F)c3)cc12 [9L10/A119032],> 30
10,O=CCc1cn(Cc2cccc(C(F)(F)F)c2)c2ccc(-c3ccc(Oc4ccccc4)cc3)cc12 [9D12/A119039],7
11,CCCCCCCCn1cc(CC=O)c2cc(-c3cccc(F)c3)ccc21 [9J18/A119045],3
12,O=CCc1cn(CCCOc2ccccc2)c2ccc(-c3cc(C(F)(F)F)cc(C(F)(F)F)c3)cc12 [9D10/A119048],> 30
13,CCCCCCCCn1cc(CC=O)c2cc(-c3ccc(F)c(Cl)c3)ccc21 [9L8/A119041],1
14,O=CCc1cn(Cc2ccc3ccccc3c2)c2ccc(-c3ccc(Oc4ccccc4)cc3)cc12 [9N14/A119079],20
15,CCCCCCn1cc(CC=O)c2cc(-c3ccc(C)cc3)ccc21 [9L4/A119018],23
16,Cc1cccc(-c2ccc3c(c2)c(CC=O)cn3Cc2ccc3ccccc3c2)c1 [9N22/A119076],20
17,CC(C)Cn1cc(CC=O)c2cc(-c3cc(C(F)(F)F)cc(C(F)(F)F)c3)ccc21 [9B22/A119064],8

row,Molecule,IC50 [µM]
1,CCCCCCCCn1cc(CC=O)c2cc(-c3ccc(C)cc3)ccc21 [9L6/A119042],9
2,COc1ccccc1-c1ccc2c(c1)c(CC=O)cn2Cc1ccc2ccccc2c1 [9N12/A119075],18
3,CCCCCCn1cc(CC=O)c2cc(-c3cccc(C)c3)ccc21 [9J22/A119020],7
4,O=CCc1cn(Cc2ccccc2)c2ccc(-c3ccc(F)c(Cl)c3)cc12 [9N10/A119001],9
5,O=CCc1cn(Cc2ccccc2)c2ccc(-c3cc(C(F)(F)F)cc(C(F)(F)F)c3)cc12 [9H6/A119000],18
6,O=CCc1cn(CC2CC2)c2ccc(-c3ccc(F)c(Cl)c3)cc12 [9J8/A119057],> 30
7,O=CCc1cn(Cc2cccc(C(F)(F)F)c2)c2ccc(-c3ccc(F)c(Cl)c3)cc12 [9H14/A119033],6
8,Cc1ccc(-c2ccc3c(c2)c(CC=O)cn3CC2CC2)cc1 [9N8/A119058],> 30
9,CCCCCCCCn1cc(CC=O)c2cc(-c3cc(C(F)(F)F)cc(C(F)(F)F)c3)ccc21 [9L22/A119040],> 30
10,CCCCCCCCn1cc(CC=O)c2cc(-c3cccc(OCC)c3)ccc21 [9F20/A119046],2
11,CCCCCCCCn1cc(CC=O)c2cc(-c3ccccc3OC)ccc21 [9J16/A119043],5
12,CC(C)(C)c1ccc(Cn2cc(CC=O)c3cc(-c4ccc(F)c(Cl)c4)ccc32)cc1 [9N6/A119025],5
13,CCCCCCn1cc(CC=O)c2cc(-c3cccc(OCC)c3)ccc21 [9H10/A119022],7
14,O=CCc1cn(CC2CC2)c2ccc(-c3cc(C(F)(F)F)cc(C(F)(F)F)c3)cc12 [9H12/A119056],20
15,Cc1ccc(-c2ccc3c(c2)c(CC=O)cn3Cc2cccc(C(F)(F)F)c2)cc1 [9H4/A119034],7
16,CC(C)(C)c1ccc(Cn2cc(CC=O)c3cc(-c4cccc(F)c4)ccc32)cc1 [9B12/A119029],4

# Same assay, conditions: Table 2, pre-incubation of enzyme with inhibitor; read-out: IC50 pre-inc
row,Molecule,IC50 [µM]
1,CCCCCCCCn1cc(CC=O)c2cc(-c3cccc(F)c3)ccc21 [9J18/A119045],< 0.3

# Same assay, conditions: Table 3, pre-incubation with Icmt for 30 min at 37° C.; read-out: IC50 PI (converted)
row,Molecule,IC50 [µM]
1,Cc1cccc(-c2ccc3c(c2)c(CC(N)=O)cn3Cc2ccccc2)c1 [(e1)/drawing 2],2.4
2,Cc1cccc(-c2ccc3c(c2)c(CC(N)=O)cn3CC(C)C)c1 [(a1)/drawing 2],17.7
3,Cc1cccc(-c2ccc3c(c2)c(CC(N)=O)cn3CC2CC2)c1 [(b1)/drawing 2],9.5
4,CCCCCCn1cc(CC(N)=O)c2cc(-c3cccc(C)c3)ccc21 [(c1)/drawing 2],1.7
5,Cc1cccc(-c2ccc3c(c2)c(CC(N)=O)cn3Cc2cccc(C(F)(F)F)c2)c1 [(g1)/drawing 2],0.71

# Same assay, conditions: standard in vitro methylation assay; read-out: Km as Icmt substrate
row,Molecule,Km [µM]
1,"biotin-S-farnesyl-L-cysteine [BFC, reference compound]",2.1 ± 0.4
